Holding throughout (format): in vivo
The subject of series [1] is German cockroaches (Blattella germanica). Nature of the series: Test Example 3: control test against German cockroaches, spray in chamber. Conditions: adult German cockroaches; 1.5 mL sprayed; concentration [%]: broflanilide 0.02, imiprothrin 0.01, cyfluthrin 0.0016, alone or mixed; 420 minutes after spraying. The source says: (§1) Next, the usefulness of the inventive composition for controlling pests will be indicated by Test Examples.
(§2) (hereinafter referred to as expected value A)
(§3) (hereinafter referred to as expected value B)
(§4) In a plastic cup (diameter: 12.4 cm, height: 10.2 cm) lined with a filter paper, ten adult German cockroaches (Blattella germanica) (five males and five females each) were released, and the plastic cup was placed in the center of the bottom of a box-shaped chamber (46 cm×46 cm×70 cm in height). From the height of 60 cm, 1.5 mL of each of formulations prepared by dissolving a single agent of any one of broflanilide, imiprothrin and cyfluthrin, or a mixed agent of two or more thereof in a mixture of isopropyl alcohol and Isopar M at a mixing ratio of 1:9 was sprayed under a spray pressure of 0.041 MPa. After a lapse of 420 minutes from spraying, the number of dead and moribund individuals was examined, and moribund and mortal rates (%) were determined by the above equation 3. The test was performed through two replicates. Dead individuals are completely immobile individuals, and moribund individuals are individuals who cannot get up when turned on their backs.

Series [2] has the same test system. Description: Test Example 9: control test against German cockroaches, spray in chamber. Conditions: adult German cockroaches; 1.5 mL sprayed; concentration [%]: broflanilide 0.02, imiprothrin 0.01, permethrin 0.05, alone or mixed; 420 minutes after spraying.
From the text: as §1, §2, §3
as §4, with “permethrin,” for “cyfluthrin,”

Series [3] has the same test system. Nature of the series: Test Example 6: control test against German cockroaches, spray in chamber. Conditions: adult German cockroaches; 1.5 mL sprayed; concentration [%]: isocycloseram 0.05, imiprothrin 0.01, lambda-cyhalothrin 0.0025, alone or mixed; 60 minutes after spraying. The protocol:
Next, the usefulness of the inventive composition for controlling pests will be indicated by Test Examples. In general, the control effect to be expected when treated with a mixture obtained by mixing given two or three types of active ingredient compounds is determined by the Colby's calculation equation represented by the following [Equation 1] and [Equation 2].
[formula] • P: moribund and mortal rates (%) when treated with an active ingredient compound X in the concentration of m [ppm] • Q: moribund and mortal rates (%) when treated with an active ingredient compound Y in the concentration of n [ppm] • EA: moribund and mortal rates (%) when treated with an active ingredient compound X in the concentration of m [ppm] and an active ingredient compound Y in the concentration of n [ppm] (hereinafter referred to as expected value A) […]
Regarding the synergistic effect of three types of the active ingredient compounds, in case where the moribund and mortal rates (%) when actually treated with a mixture obtained by mixing three types of the active ingredient compounds exceed the expected value A calculated by using the moribund and mortal rates (%) when actually treated with a mixture obtained by mixing two types of the active ingredient compounds among three types thereof, and the moribund and mortal rates (%) calculated when actually treated the remaining one type of the active ingredient compound, or the expected value B (%) calculated from the moribund and mortal rates (%) when actually treated with each of three types of the active ingredient compounds alone, it was determined that the synergistic effect exists. […]

The test system is the same in series [4]. Nature of the series: Test Example 5: control test against German cockroaches, spray in chamber. The conditions noted are these: adult German cockroaches; 1.5 mL sprayed; concentration [%]: nicofluprole 0.01, imiprothrin 0.01, cyfluthrin 0.0002, alone or mixed; 45 minutes after spraying.
From the text: as §1, §2, §3
as §4, with “each) […]” for “each)”, “nicofluprole,” for “broflanilide,”, “45” for “420”

As for `C#CCN1CC(=O)N(COC(=O)[C@@H]2C(C=C(C)C)C2(C)C)C1=O` (mixture of isomers) [Imiprothrin, imiprothrin], the “Moribund and mortal rates [%] after 420 minutes” value in series [1] and in series [2] was 15% throughout. Besides, the “Moribund and mortal rates [%] after 60 minutes” value in series [3] was determined as 25%. Besides, the “Moribund and mortal rates [%] after 45 minutes” value in series [4] is reported as 65%.

Values taken from US20240373851A1, “PEST CONTROL COMPOSITION AND PEST CONTROL METHOD” (SUMITOMO CHEMICAL COMPANY, LIMITED, priority 2021, published 2024).
